Results reported in patent publication US4844897A, “Anti-tumor protease preparations” (Maeda; Hiroshi, priority 1985, dated 1989).

How the values were obtained:
WISH = assay: Cytotoxicity induced by protease activity in the presence of serum; format: cell-based, human
Protocol: (§1) Cell toxicity of various proteases against cultured cells and influences of serum on the cell toxicity:
(§2) The present inventors have investigated cell-killing effects of various proteases by adding the proteases to various cultured cells, and also at the same time the effect of serum on the cytotoxicity.
(§3) After 24 hours, the cells in the Lab Tech chambers were allowed to culture under three different condition. In group A, they were replaced in RPMI medium with 10% fetal calf serum containing different concentrations of test protease. In group B, the same medium with appropriate protease was used but devoid of serum; In group C, a control medium was used with 10% serum but without protease. One hour and 24 hours after the culturing cytotoxicity, observed microscopically, was determined by counting the number of cells and by morphological investigation.

HSG = assay: as above; format: cell-based, human
Protocol: as §1, §2, §3

HeP2 = assay: as above; format: cell-based, human
Protocol: as §1, §2, §3

Vero = assay: as above; format: cell-based, monkey
Protocol: as §1, §2, §3

GMK = assay: as above; format: cell-based, African green monkey
Protocol: as §1, §2
as §3, with “A 0.5 ml aliquot of RPMI-1640 medium or Eagle's NEM medium containing 10% bovine fetal calf serum was placed in a Lab Tech plastic chamber of 8-well type, (Falcon Inc.), and suspensions of various tumor cells, each containing about 1×10^4 cells in 0.5 ml, were added thereto and cultured in an incubator at 37° C. in 5% CO2 (95% being air). After” for “After”
(§4) (b) Numerals show reciprocal number of dilution for obtaining the
(§5) equivalent effect after 24hour treatment on the basis of the effect of th […]

tumors = assay: Anti-tumor action of proteases (general statement); format: in vivo
tumor cell = assay: Effect of serum on tumor cell toxicity with time; format: cell-based; conditions: presence of serum; 24-hour vs one-hour treatment
Protocol: as §1, §2, §3

HEL = assay: Cytotoxicity induced by protease activity in the presence of serum; format: cell-based, human
Protocol: as §1, §2
as §3, with “A 0.5 ml aliquot of RPMI-1640 medium or Eagle's NEM medium containing 10% bovine fetal calf serum was placed in a Lab Tech plastic chamber of 8-well type, (Falcon Inc.), and suspensions of various tumor cells, each containing about 1×10^4 cells in 0.5 ml, were added thereto and cultured in an incubator at 37° C. in 5% CO2 (95% being air). After” for “After”
as §4, §5

HeLa = assay: as above; format: cell-based
Protocol: as §1, §2, §3

[1] = system: Burkitt's lymphoma (Raji); assay: Toxicity of various proteases against cultured cells, serum-free; format: cell-based; conditions: absence of serum, 24-hour treatment
Protocol: as §1, §2, §3

[2] = system: Cervical canal cancer (HeLa); assay: as above; format: cell-based; conditions: absence of serum, 24-hour treatment
Protocol: as §1, §2, §3

[3] = system: Rat hepatocytes (Liver cells); assay: as above; format: cell-based; conditions: normal, absence of serum, 24-hour treatment
Protocol: as §1, §2, §3

[4] = system: Human fetus lung fibroblast (HEL); assay: as above; format: cell-based; conditions: normal cell, absence of serum, 24-hour treatment
Protocol: as §1, §2, §3

[5] = system: Monkey kidney fibroblast (Vero); assay: as above; format: cell-based; conditions: normal cell, absence of serum, 24-hour treatment
Protocol: as §1, §2, §3

[6] = system: African green monkey kidney (Epithelial cells); assay: as above; format: cell-based; conditions: normal, absence of serum, 24-hour treatment
Protocol: as §1, §2, §3

[7] = system: Human normal T-lymphocytes; assay: as above; format: cell-based; conditions: absence of serum, 24-hour treatment
Protocol: as §1, §2, §3

[8] = system: Human laryngeal carcinoma (HEp-2); assay: as above; format: cell-based; conditions: absence of serum, 24-hour treatment
Protocol: as §1, §2, §3

Human fibroblast (WISH) = assay: as above; format: cell-based; conditions: normal cell, absence of serum, 24-hour treatment
Protocol: as §1, §2, §3

Rat neuroblastoma (C6) = assay: as above; format: cell-based; conditions: absence of serum, 24-hour treatment
Protocol: as §1, §2, §3

[9] = system: Human submaxillary gland tumor (HSG); assay: as above; format: cell-based; conditions: absence of serum, 24-hour treatment
Protocol: as §1, §2, §3

[10] = system: Mouse leukemia (RL.male. 1); assay: as above; format: cell-based; conditions: absence of serum, 24-hour treatment
Protocol: as §1, §2, §3

[11] = system: α1 anti-trypsin, α2 antichymotrypsin, α2 macroglobulin, etc.; assay: Inhibition of protease activity by protease-inhibiting substances in vivo
Meth A tumor = assay: Effectiveness on mouse solid tumor (methylcholanthrene-induced Meth A tumor); format: in vivo, Balb/C mouse; conditions: injected into solid tumors, 0.1 ml, two administrations (once for each day); FIG. 3
Protocol: Anti-tumor actions of various proteases: Effectiveness on mouse solid tumor (i.e., effect on methylcholanthrene-induced tumor (Meth A tumor):
The diameters of the tumors after two administrations (once for each day) were measured.

C6 = assay: Cytotoxicity induced by protease activity in the presence of serum; format: cell-based, rat
Protocol: as §1, §2, §3

| Molecule | Cytotoxicity in the presence of serum with time (reciprocal number of dilution for equivalent effect after 24-hour vs one-hour treatment) (WISH) | Cytotoxicity in the presence of serum with time (reciprocal number of dilution for equivalent effect after 24-hour vs one-hour treatment) (HSG) | Cytotoxicity in the presence of serum with time (reciprocal number of dilution for equivalent effect after 24-hour vs one-hour treatment) (HeP2) | Cytotoxicity in the presence of serum with time (reciprocal number of dilution for equivalent effect after 24-hour vs one-hour treatment) (Vero) | Cytotoxicity in the presence of serum with time (reciprocal number of dilution for equivalent effect after 24-hour vs one-hour treatment) (GMK) | anti-tumor action / effect on propagation of tumors (tumors) | cytotoxic effects in 24-hour treatment than one-hour treatment (tumor cell) | Cytotoxicity in the presence of serum with time (reciprocal number of dilution for equivalent effect after 24-hour vs one-hour treatment) (HEL) | Cytotoxicity in the presence of serum with time (reciprocal number of dilution for equivalent effect after 24-hour vs one-hour treatment) (HeLa) | Minimum effective concentration [1] [µg/mL] | Minimum effective concentration [2] [µg/mL] | Minimum effective concentration [3] [µg/mL] | Minimum effective concentration [4] [µg/mL] | Minimum effective concentration [5] [µg/mL] | Minimum effective concentration [6] [µg/mL] | Minimum effective concentration [7] [µg/mL] | Minimum effective concentration [8] [µg/mL] | Minimum effective concentration (Human fibroblast (WISH)) [µg/mL] | inhibition of activity by protease-inhibiting substances in vivo [11] | action against tumor propagation (Meth A solid tumor) (Meth A tumor) | further results |
| --- | --- | --- | --- | --- | --- | --- | --- | --- | --- | --- | --- | --- | --- | --- | --- | --- | --- | --- | --- | --- | --- |
| Trypsin | 4 | 2-4 | 0-4 | 2-4 | 2 | no anti-tumor action | no substantial enhancement | 2 | 2-4 | 0.05 | 0.78 | > 5.0 | 0.20 | 1.56 | 0.39 | 0.39 | 1.56 | 1.56 | completely inhibited | no substantial action against the tumor propagation | Minimum effective concentration (Rat neuroblastoma (C6)): 1.56 µg/mL; Minimum effective concentration [9]: 0.39 µg/mL; Minimum effective concentration [10]: 0.78 µg/mL; Cytotoxicity in the presence of serum with time (reciprocal number of dilution for equivalent effect after 24-hour vs one-hour treatment) (C6): 2 |
| pepsin | – | – | – | – | – | no anti-tumor action | – | – | – | – | – | – | – | – | – | – | – | – | completely inhibited | no substantial action against the tumor propagation | – |
| chymotrypsin | – | – | – | – | – | no anti-tumor action | – | – | – | – | – | – | – | – | – | – | – | – | completely inhibited | – | – |
| Papain: protease of plant origin (protein, UniProt P00784 134-345, looked up) Papain: IPEYVDWRQKGAVTPVKNQGSCGSCWAFSAVVTIEGIIKIRTGNLNEYSEQELLDCDRRSYGCNGGYPWSALQLVAQYGIHYRNTYPYEGVQRYCRSREKGPYAAKTDGVRQVQPYNEGALLYSIANQPVSVVLEAAGKDFQLYRGGIFVGPCGNKVDHAVAAVGYGPNYILIKNSWGTGWGENGYIRIKRGTGNSYGVCGLYTSSFYPVKN | 2 | 2-4 | 0-4 | 2-4 | 2 | no anti-tumor action | no substantial enhancement | 2 | 2-4 | 0.06 | 0.84 | > 5.0 | 0.20 | 1.58 | 0.38 | 0.37 | 1.60 | 1.52 | completely inhibited | no substantial action against the tumor propagation | Minimum effective concentration (Rat neuroblastoma (C6)): 1.60 µg/mL; Minimum effective concentration [9]: 0.38 µg/mL; Minimum effective concentration [10]: 0.82 µg/mL; Cytotoxicity in the presence of serum with time (reciprocal number of dilution for equivalent effect after 24-hour vs one-hour treatment) (C6): 2 |
